Literature values as cited in US20130096060A1, “GLP-1 AGONIST FOR USE IN THE TREATMENT OF STENOSIS OR/AND OBSTRUCTION IN THE PANCREATIC DUCT SYSTEM” (priority 2011, published 2013).

Experiments:
[1] = system: acinar cells of the guinea pig pancreas; settings: by interaction with exendin receptors (Raufman, 1996)
[2] = system: acinar cells of the pancreas; settings: in contrast to exendin-4

| Substance | cellular cAMP production [1] | amylase release [2] |
| --- | --- | --- |
| exendin-3: peptide of the exendin group, able to lower blood glucose concentrations | stimulate an increase | produces an increase |
| exendin-4: peptide of the exendin group, 39 AS, SEQ ID NO: 2, able to lower blood glucose concentrations | stimulate an increase |  |
